From ChEMBL document CHEMBL5030559, “Imaging Autotaxin In Vivo with 18F-Labeled Positron Emission Tomography Ligands” (J Med Chem, 2021)

Tests used:
Autotaxin = Autotaxin (Homo sapiens, UniProt Q13822); assay: Inhibition of ATX lysoPLD (unknown origin) using 18:1 LPC as substrate assessed as reduction in choline release by HVA fluorescence based analysis
[1] = Ex vivo biodistribution in bone of iv dosed CD-1 mouse assessed as accumulation of radioactivity in bone measured after 15 to 60 min by PET imaging analysis; type: ADME, organism-based, Bone element; conditions: time 15-60 min
[2] = Drug uptake in iv dosed CD-1 mouse liver assessed as high radioactivity in liver measured up to 60 mins post injection by PET imaging analysis; type: ADME, organism-based; conditions: in vivo, 1 h
[3] = Drug uptake in iv dosed CD-1 mouse kidney assessed as high radioactivity in kidney measured up to 60 mins post injection by PET imaging analysis; type: ADME, organism-based; conditions: in vivo, 1 h
[4] = Drug uptake in iv dosed CD-1 mouse small intestine assessed as high radioactivity in small intestine measured up to 60 mins post injection by PET imaging analysis; type: ADME, organism-based; conditions: in vivo, 1 h
[5] = Drug uptake in liver of LPS- induced CD-1 mouse model assessed as increase in signal of tracer in inflammed liver by measuring AUC (30 to 60 mins) relative to control; type: ADME, tissue-based; conditions: in vivo, time 30-60 min
[6] = Drug uptake in liver of LPS- induced CD-1 mouse model assessed as increase in signal of tracer in liver measured after 30 mins by autoradiography analysis relative to control; type: ADME, tissue-based; conditions: in vivo, 0.5 h
[7] = Drug uptake in iv dosed CD-1 mouse bone assessed as accumulation of radioactivity in bone measured after 30 to 60 mins post injection by PET imaging analysis; type: ADME, organism-based, Bone element; conditions: in vivo, time 30-60 min
[8] = Drug uptake in iv dosed CD-1 mouse brain measured up to 60 mins post injection by PET imaging analysis; type: ADME, organism-based; conditions: in vivo, 1 h
[9] = Drug uptake in iv dosed CD-1 mouse bone measured after 30 min by PET imaging analysis; type: ADME, organism-based, Bone element; conditions: in vivo, 0.5 h
[10] = Drug uptake in iv dosed CD-1 mouse bone assessed as accumulation of radioactivity in bone measured after 30 mins post injection by PET imaging analysis; type: ADME, organism-based, Bone element; conditions: in vivo, 0.5 h
[11] = Drug uptake in iv dosed CD-1 mouse bone assessed as accumulation of radioactivity in bone measured after 60 mins post injection by PET imaging analysis; type: ADME, organism-based, Bone element; conditions: in vivo, 1 h

**Q.** With `CCc1nc2ccc(N3CCN(CC(=O)N4CC(O)C4)CC3)cn2c1N(C)c1nc(-c2ccc(F)cc2)c(C#N)s1` as the molecule, how does the Ki (Autotaxin) read?
**A.** 30 nM

**Q.** Which results are given for `[2H]C([2H])([18F])C([2H])([2H])N1CCN(C(=O)CN2CCN(c3ccc4nc(CC)c(N(C)c5nc(-c6ccc(F)cc6)c(C#N)s5)n4c3)CC2)CC1`?
**A.** Drug uptake [1]: Not Active; Drug uptake [2]: Active; Drug uptake [3]: Active; Drug uptake [4]: Active; Drug uptake [5]: 84%; Drug uptake [6]: 92%

**Q.** With `CCc1nc2ccc(N3CCN(CC(=O)N4CCC(F)CC4)CC3)cn2c1N(C)c1nc(-c2ccc(F)cc2)c(C#N)s1` as the molecule, how does the Ki (Autotaxin) read?
**A.** 15 nM

**Q.** Which Drug uptake [7] does the source give for `CCc1nc2ccc(N3CCN(CC(=O)N4CCC([18F])CC4)CC3)cn2c1N(C)c1nc(-c2ccc(F)cc2)c(C#N)s1` here?
**A.** 10 % ID/g

**Q.** Which Ki (Autotaxin) does the source give for `CCc1nc2ccc(N3CCN(CC(=O)N4CC[C@H](F)C4)CC3)cn2c1N(C)c1nc(-c2ccc(F)cc2)c(C#N)s1` here?
**A.** 32 nM

**Q.** Which Ki (Autotaxin) does the source give for `CCc1nc2ccc(N3CCN(CC(=O)N4CCC(F)C4)CC3)cn2c1N(C)c1nc(-c2ccc(F)cc2)c(C#N)s1` (stereo not drawn) here?
**A.** 15 nM

**Q.** Which Ki (Autotaxin) does the source give for `CCc1nc2ccc(N3CCN(CC(=O)N4CC(CF)C4)CC3)cn2c1N(C)c1nc(-c2ccc(F)cc2)c(C#N)s1` here?
**A.** 14 nM

**Q.** For `CCc1nc2ccc(N3CCN(CC(=O)N4CCN(CCF)CC4)CC3)cn2c1N(C)c1nc(-c2ccc(F)cc2)c(C#N)s1`, which Ki (Autotaxin) is on record?
**A.** 13 nM

**Q.** Which results are given for `CCc1nc2ccc(N3CCN(CC(=O)N4CCC(C[18F])C4)CC3)cn2c1N(C)c1nc(-c2ccc(F)cc2)c(C#N)s1` (stereo not drawn)?
**A.** Drug uptake [8]: Not Active; Drug uptake [9]: Active; Drug uptake [1]: Active; Drug uptake [2]: Active; Drug uptake [3]: Active; Drug uptake [4]: Active

**Q.** Which Ki (Autotaxin) does the source give for `CCc1nc2ccc(N3CCN(CC(=O)N4CC(F)C4)CC3)cn2c1N(C)c1nc(-c2ccc(F)cc2)c(C#N)s1` here?
**A.** 41 nM

**Q.** What does the source list for `CCc1nc2ccc(N3CCN(CC(=O)N4CCN(CC[18F])CC4)CC3)cn2c1N(C)c1nc(-c2ccc(F)cc2)c(C#N)s1`?
**A.** Drug uptake [10]: 6.6 % ID/g; Drug uptake [11]: 6.4 % ID/g

**Q.** For `CCc1nc2ccc(N3CCN(CC(=O)N4CC(OCCF)C4)CC3)cn2c1N(C)c1nc(-c2ccc(F)cc2)c(C#N)s1`, which Ki (Autotaxin) is on record?
**A.** 17 nM

**Q.** With `CCc1nc2ccc(N3CCN(CC(=O)N4CCCC(F)C4)CC3)cn2c1N(C)c1nc(-c2ccc(F)cc2)c(C#N)s1` (stereo not drawn) as the molecule, how does the Ki (Autotaxin) read?
**A.** 15 nM

**Q.** For `CCc1nc2ccc(N3CCN(CC(=O)N4CC[C@@H](F)C4)CC3)cn2c1N(C)c1nc(-c2ccc(F)cc2)c(C#N)s1`, which Ki (Autotaxin) is on record?
**A.** 14 nM

**Q.** With `CCc1nc2ccc(N3CCN(CC(=O)N4CCC(CF)C4)CC3)cn2c1N(C)c1nc(-c2ccc(F)cc2)c(C#N)s1` (stereo not drawn) as the molecule, how does the Ki (Autotaxin) read?
**A.** 7 nM

**Q.** For `CCc1nc2ccc(N3CCN(CC(=O)N4CCC([18F])C4)CC3)cn2c1N(C)c1nc(-c2ccc(F)cc2)c(C#N)s1` (stereo not drawn), which Drug uptake [7] is on record?
**A.** 10 % ID/g

**Q.** For `[2H]C([2H])(F)C([2H])([2H])N1CCN(C(=O)CN2CCN(c3ccc4nc(CC)c(N(C)c5nc(-c6ccc(F)cc6)c(C#N)s5)n4c3)CC2)CC1`, which Ki (Autotaxin) is on record?
**A.** 19 nM
